Test results reported in ChEMBL document CHEMBL4725244, “Immunomodulation-mediated anticancer activity of a novel compound from Brugmansia suaveolens leaves” (Bioorg Med Chem, 2020).
Activity calls are given as the source filed them. The calls are words filed in the database; no cut-off is given here.

Columns and labels:
[1] = (§1) Immunomodulation-mediated anticancer activity against human MCF7 cells assessed as human PBMC-mediated cell cycle arrest by measuring proportion of cells at S phase at 10 uM pretreated with effector PBMC cells for 48 hrs followed by co-culturing of target cancer cells with PBMC at ratio of 1:10 for 24 hrs by propidium iodide staining based flow cytometry (reference value: 19.6%); type: functional
[2] = as §1, with “measuring increase in” for “measuring”, “subG1” for “S”, “relative to control” for “(reference value: 19.6%)”; type: functional
[3] = Cytotoxicity against human MCF7 cells assessed as reduction in cell viability at 5 to 20 uM measured after 24 hrs by MTT assay relative to control; type: cell-based; settings: dose 5-20 µM, read-out: INH
[4] = as §1, with “subbG1” for “S”, “4.8%)” for “19.6%)”; type: functional
[5] = Immuno-modulation activity in human PBMC assessed as increase in IFNgamma secretion at 10 uM after 48 hrs by ELISA relative to control; type: functional
[6] = Immuno-modulation activity in human PBMC assessed as increase in IL-2 secretion at 10 uM after 48 hrs by ELISA relative to control; type: functional
[7] = Immuno-modulation activity in human PBMC assessed as increase in cell proliferation at 10 uM after 48 hrs by MTT assay relative to control; type: functional
[8] = (§2) Immunomodulation-mediated anticancer activity against human MCF7 cells assessed as human PBMC-mediated inhibition of cancer cell viability at 10 uM pretreated with effector PBMC cells for 48 hrs followed by co-culturing of target cancer cells with PBMC at ratio of 1:2.5 to 1:20 and measured after 24 hrs by MTT assay; type: functional
A549 = experiment: as §2, with “A549” for “MCF7”, “1:10” for “1:2.5 to 1:20”, “[…] (reference value: 5%)” for “MTT assay”; type: functional
[9] = as §1, with “G2M” for “S”, “10.5%)” for “19.6%)”; type: functional
PBMC = experiment: Immuno-modulation activity in human PBMC assessed as increase in cell proliferation at 20 uM after 48 hrs by MTT assay; type: functional, tissue-based
[10] = as §2, with “1:10” for “1:2.5 to 1:20”, “assay (reference value: 5%)” for “assay”; type: functional
[11] = (§3) Immunomodulation-mediated anticancer activity against human MCF7 cells assessed as human PBMC-mediated increase in ROS generation at 10 uM pretreated with effector PBMC cells for 48 hrs followed by co-culturing of target cancer cells with PBMC at ratio of 1:10 for 6 hrs by DCFH-DA staining based fluorometric analysis (reference value: 7%); type: functional
[12] = as §1, with “G0G1” for “S”, “64.6%)” for “19.6%)”; type: functional
[13] = as §3, with “decrease” for “increase”, “mitochondrial membrane potential” for “ROS generation”, “6” for “48”, “24” for “6”, “rhodamine 123” for “DCFH-DA”, “5%)” for “7%)”; type: functional

**Q.** With `COc1ccc(OC)c2c1OC(=O)CC[C@H](O)C2=O` as the compound, how does the Activity [1] read?
**A.** The Activity was 13.2%.

**Q.** And the “fold change (FC)” value [2]?
**A.** Its value is 5.

**Q.** What about the cytotoxicity at 24 h, up to 20 µM [3] of the same compound?
**A.** Its cytotoxicity at 24 h, up to 20 µM is under 30%.

**Q.** And the Activity [4]?
**A.** Its Activity is 28.4%.

**Q.** And the “fold change (FC)” value [5]?
**A.** Its value is 3.

**Q.** And the “fold change (FC)” value [6]?
**A.** Its value is 3.

**Q.** What about the Activity [7] of the same compound?
**A.** Its Activity is 92%.

**Q.** What about the Activity [8] of the same compound?
**A.** Its Activity is “<=70%”.

**Q.** What about the inhibition at 10 µM (A549) of the same compound?
**A.** Its inhibition at 10 µM is 32%.

**Q.** What about the Activity [9] of the same compound?
**A.** The Activity was 59%.

**Q.** And the Activity (PBMC)?
**A.** Its Activity is “Active”.

**Q.** And the inhibition at 10 µM [10]?
**A.** The inhibition at 10 µM was 67%.

**Q.** What about the Activity [11] of the same compound?
**A.** Its Activity is 79%.

**Q.** What about the Activity [12] of the same compound?
**A.** Its Activity is 51.8%.

**Q.** What about the inhibition at 10 µM [13] of the same compound?
**A.** Its inhibition at 10 µM is 66%.
